{
  "source": "paper PMC7281206",
  "about": "“Cysteine Cathepsins Inhibition Affects Their Expression and Human Renal Cancer Cell Phenotype” (Cancers, 2020)",
  "key": {"[1]": {"test_system": "769-P cells (proteolytic activity)", "test": "Cell proteolytic activity towards Ac-PLVQ-AMC, 769-P", "type": "cell-based, human", "conditions": "30 min peptide, then 10 min Ac-PLVQ-AMC; fluorescence microscopy and fluorimetric analysis", "protocol": "(§1) To evaluate the inhibitory properties of the peptides directly on the human renal cancer cells, we firstly assessed the impact of Ac-PLVE-FMK and Ac-VLPE-FMK on the cell viability of 769-P and A498 cells to determine the working concentrations for further experiments. […] Further experiments were performed using a concentration of 20 μM. To understand if the peptides could affect the activity of caspase proteases, we tested their effect on cell viability in combination with the chemotherapeutic paclitaxel (PXT) in both the cell lines. […] Next, we evaluated the effect of the peptides on renal cancer cell proteolytic activity against the fluorogenic probe Ac-PLVQ-AMC. In this case, 769-p and A498 cells were treated for 30 min with Ac-PLVE-FMK or Ac-VLPE-FMK and were then exposed for 10 min to the substrate Ac-PLVQ-AMC prior fluorescence microscopy analysis (Figure 3c,d).\nFigure 3 The effect of the peptide inhibitors on human 769-P and A498 renal cancer cell proliferation and proteolytic activity. […] Cell proliferation was measured after 24, 48, and 72 h via MTT (3-(4,5-dimethylthiazol-2-yl)-2,5-diphenyltetrazolium bromide) assay. […] (c) Fluorescence microscopy evaluation and quantification of the cell proteolytic activity in 769-P and (d) A498 cells towards the fluorogenic substrate Ac-PLVQ-AMC in the absence or presence of Ac-PLVE-FMK and Ac-VLPE-FMK. […]"}, "769-P cells": {"test_system": "769-P cells", "test": "Cell viability with paclitaxel (MTT), 769-P", "type": "cell-based, human", "conditions": "peptide 20 µM combined with PXT 100 nM; versus PXT alone", "protocol": "as §1\nThe cell number was evaluated by counting viable cells using the MTT (3-(4,5-dimethylthiazol-2-yl)-2,5-diphenyltetrazolium bromide) colorimetric assay. A total of 2 × 10^4 cells/well were seeded on independent 96-well plates for each time point (0, 24, 48, and 72 h), with five replicates and treated with two inhibitors (2.5–250 μM). Then, 10 µL of the MTT reagent was added to each well, and cells were incubated for another 5 h. Next, the absorbance value was measured using a CLARIOstar® Plus plate reader (BMG Labtech, Ortenberg, Germany) at 490 nm. Triplicate wells were assayed, and S.D.s were determined.\nFigure S3. Combined effect of PXT and the inhibitors on 769‐P proliferation: 769‐P cells were treated with 100 nM of PXT alone or in combination with 20 μM of Ac‐PLVE and Ac‐VLPE and cell proliferation was measured after 24, 48, and 72 h via MTT assay. Data represent the mean (± S.D.) of three independent experiments, each performed in triplicate.\nFigure S4. Spheroids size and circularity: (a,b) size and circularity of 769‐P and (c,d) A498 cells upon treatment with Ac‐PLVE‐FMK and Ac‐VLPE‐FMK. Data represent the mean (± S.D.) of three independent experiments, each performed in triplicate. […]"}, "human recombinant CtsB": {"test_system": "human recombinant CtsB", "test": "Fluorescent protease activity assay, recombinant CtsB", "type": "biochemical", "conditions": "20 nM CtsB, 50 μM Ac-PLVQ-AMC, inhibitor 2 μM; 0.1 M sodium acetic buffer pH 4.6, 12 min, Ex/Em 353/442 nm", "protocol": "Ac-PLVE-FMK and Ac-VLPE-FMK inhibitory properties were evaluated against human recombinant CtsL and B. These recombinant enzymes were expressed in E. coli via plasmid transformation and further purification, using nickel-nitrilotriacetic acid (Ni-NTA) sepharose. Gel zymography assay was used to provide a preliminary evaluation of the ability of these recombinant proteins to degrade the gelatin substrate previously embedded in the gel (Supplementary Figure S1). Following Coomassie staining, the Cts were detectable as single bands. As expected, a translucent area was evident, due to the substrate digestion in the proximity of the proteins. Then, the recombinant proteins were tested for their ability to digest the Triticain-α substrate Ac-PLVQ via fluorescent protease activity assay, previously optimized by our group. This probe was conjugated with the fluorogenic chromophore 7-amino-4-methylcoumarin (Ac-PLVQ-AMC). After proteolytic cleavage, it emits a detectable fluorescent signal.\nTotal RNA extract from retinoblastoma […] cells was used to obtain cDNA. A pair of oligonucleotides ([…] and […]) was used for the amplification of DNA fragment containing CtsB, the product of which was ligated into pET15b (Merck Millipore, Billerica, MA, USA) using NdeI and XhoI. DNA fragment containing CtsL was amplified using a pair of oligonucleotides ([…] and […]) and ligated into pET28a (+) (Merck Millipore, Billerica, MA, USA) using NheI and HindIII. […]\nThe activity of recombinant CtsL and B was detected by the hydrolysis of the fluorogenic substrate Ac-Pro-Leu-Val-Gln- 7-amino-4-methylcoumarin (AMC) (Pepmic Suzhou Jiangsu, China). […] The substrate was added to a final concentration of 50 μM, and its hydrolysis was continuously measured for 12 min using a CLARIOstar® Plus plate reader (BMG Labtech Ortenberg Baden-Württemberg, Germany) at excitation and emission wavelengths of 353 and 442 nm, respectively."}},
  "note": "*: point of attachment. CH2F = FC*",
  "data": [
    {"substance": "Ac-VLPE-CH2F [Ac-VLPE-FMK]", "values": [
      {"measurement": "Inhibition of probe degradation (cell proteolytic activity)", "setting": "[1]", "result": "significantly inhibited the probe degradation"},
      {"measurement": "Effect on cell viability in combination with PXT", "setting": "769-P cells", "result": "no significant differences were observed"},
      {"measurement": "Inhibition of Ac-PLVQ-AMC cleavage (fluorescent signal)", "setting": "human recombinant CtsB", "result": "the intensity of the fluorescent signal was significantly affected"}
    ]},
    {"substance": "Ac-PLVE-CH2F [Ac-PLVE-FMK]", "values": [
      {"measurement": "Inhibition of probe degradation (cell proteolytic activity)", "setting": "[1]", "result": "significantly inhibited the probe degradation"},
      {"measurement": "Effect on cell viability in combination with PXT", "setting": "769-P cells", "result": "no significant differences were observed"},
      {"measurement": "Inhibition of Ac-PLVQ-AMC cleavage (fluorescent signal)", "setting": "human recombinant CtsB", "result": "the intensity of the fluorescent signal was significantly affected"}
    ]}
  ]
}
